Measurements from the NIST ThermoML archive (doi:10.1016/j.jct.2005.02.003).

Experiment: molar heat capacity at constant pressure
Details: 101.33 kPa

CC(C)COC(C)(C)C [isobutyl tert-butyl ether]
molar heat capacity at constant pressure [J/K/mol]
Details | Crystal | Liquid
140.78 K | 140.8 | –
141.71 K | 142 | –
142.63 K | 142.5 | –
143.56 K | 143.4 | –
144.49 K | 143.5 | –
145.41 K | 144.2 | –
146.33 K | 144.7 | –
147.24 K | 145.3 | –
149.06 K | 146.4 | –
149.71 K | – | 210
150 K | 147.3 | –
150.86 K | 147.4 | –
151.76 K | 148.4 | –
151.77 K | – | 210.7
152.66 K | 149 | –
153.55 K | 149.9 | –
153.82 K | – | 211.9
155.87 K | – | 212.5
156.22 K | 153.2 | –
157.08 K | 153.7 | –
157.9 K | – | 213.3
157.95 K | 155.8 | –
159.92 K | – | 214
160 K | 152.6 | –
161.93 K | – | 214.7
162.33 K | 153.6 | 214.8
163.93 K | – | 215.4
165.92 K | – | 216.2
167.9 K | – | 216.8
169.88 K | – | 217.5
170 K | – | 217.7
171.84 K | – | 218.3
173.8 K | – | 219.3
175.75 K | – | 220.1
177.69 K | – | 220.3
179.63 K | – | 221.1
180 K | – | 221.4
181.56 K | – | 221.9
183.49 K | – | 222.7
185.4 K | – | 223.2
187.31 K | – | 224.1
189.21 K | – | 224.7
190 K | – | 225
191.11 K | – | 225.4
193 K | – | 226
194.89 K | – | 226.8
196.77 K | – | 227.4
198.65 K | – | 227.8
200 K | – | 228.5
200.52 K | – | 228.5
201.82 K | – | 229.6
202.53 K | – | 229.1
203.25 K | – | 229.2
203.96 K | – | 229.6
204.67 K | – | 230.4
205.41 K | – | 230.1
206.12 K | – | 230.8
206.84 K | – | 231.4
207.55 K | – | 231.1
208.27 K | – | 231.1
208.98 K | – | 232.1
209.69 K | – | 232
210 K | – | 232.1
210.4 K | – | 232.3
211.12 K | – | 232.6
211.83 K | – | 233
212.55 K | – | 233.1
213.26 K | – | 233.6
213.97 K | – | 233.7
214.69 K | – | 233.6
215.4 K | – | 234.1
216.12 K | – | 234.1
216.87 K | – | 233.8
217.59 K | – | 234.2
218.3 K | – | 234.6
219.02 K | – | 235.9
219.73 K | – | 236
220 K | – | 235.8
220.45 K | – | 236.2
221.17 K | – | 236
221.89 K | – | 237
222.6 K | – | 237
223.33 K | – | 236.7
224.04 K | – | 237.6
224.76 K | – | 237.8
225.48 K | – | 237.8
226.2 K | – | 238
226.92 K | – | 238.6
227.65 K | – | 238.6
228.42 K | – | 239.6
229.14 K | – | 239.3
229.86 K | – | 239.6
230 K | – | 239.7
230.59 K | – | 239.5
231.31 K | – | 240.6
232.04 K | – | 240.4
233.48 K | – | 240.4
234.2 K | – | 240.9
235.65 K | – | 242
236.37 K | – | 242.7
237.1 K | – | 242.3
237.82 K | – | 242.2
238.55 K | – | 243.6
239.27 K | – | 243.4
240 K | – | 243.7
240.05 K | – | 243.3
240.77 K | – | 243.8
241.5 K | – | 243.9
242.22 K | – | 244.6
242.94 K | – | 245.2
243.67 K | – | 244.9
244.39 K | – | 244.9
245.12 K | – | 245.9
246.57 K | – | 247
247.3 K | – | 245.8
248.03 K | – | 247
248.76 K | – | 247.9
249.49 K | – | 247.9
250 K | – | 247.9
250.22 K | – | 248.3
251.77 K | – | 248
252.51 K | – | 248.4
253.24 K | – | 249
253.98 K | – | 249.8
254.72 K | – | 250.5
255.46 K | – | 250.1
256.2 K | – | 251
256.95 K | – | 251.3
257.7 K | – | 250.7
258.45 K | – | 251.2
259.2 K | – | 251.6
259.95 K | – | 252.5
260 K | – | 252.2
260.71 K | – | 252.3
261.46 K | – | 252.8
262.22 K | – | 253.6
263.85 K | – | 253.7
264.62 K | – | 254.4
265.39 K | – | 254.4
266.16 K | – | 255.3
266.93 K | – | 255.3
267.7 K | – | 255.9
268.48 K | – | 256.3
269.26 K | – | 256.4
270 K | – | 256.6
270.82 K | – | 256.8
273.2 K | – | 258
274 K | – | 258.2
274.8 K | – | 258.2
275.61 K | – | 258.9
276.58 K | – | 259.7
277.39 K | – | 259.4
279.03 K | – | 261.1
279.86 K | – | 261.4
280 K | – | 260.9
280.69 K | – | 261
282.66 K | – | 262.3
283.22 K | – | 262.3
284.18 K | – | 262.8
284.95 K | – | 263.7
285.74 K | – | 263.4
287.3 K | – | 264
287.56 K | – | 264.4
288.43 K | – | 264.7
288.86 K | – | 264.2
290 K | – | 265.2
290.42 K | – | 264.9
290.43 K | – | 265.6
291.99 K | – | 265.5
295.17 K | – | 266.9
298.15 K | – | 268.7
298.38 K | – | 268.5
299.98 K | – | 269.1
300 K | – | 269.6
301.59 K | – | 269.8
303.21 K | – | 270.6
304.86 K | – | 271.6
306.49 K | – | 272.2
308.3 K | – | 273.1
309.95 K | – | 274
310 K | – | 274
311.6 K | – | 274.4
313.27 K | – | 275.7
314.92 K | – | 276.5
316.58 K | – | 277.2
318.24 K | – | 278.5
319.91 K | – | 278.9
320 K | – | 278.7
321.57 K | – | 279.3
323.26 K | – | 280.8
324.94 K | – | 281.6
326.61 K | – | 282.4
328.29 K | – | 283.1
329.99 K | – | 283.8
330 K | – | 283.7
331.66 K | – | 284.7
333.33 K | – | 285.5
335.19 K | – | 285.9
336.85 K | – | 286.8
338.51 K | – | 287.9
340 K | – | 289
340.16 K | – | 289
341.81 K | – | 290
343.47 K | – | 291.2
345.13 K | – | 291.6
346.78 K | – | 292.3
348.44 K | – | 293
350 K | – | 294.5
350.08 K | – | 294.6
351.76 K | – | 295.7
353.42 K | – | 296.9
